In patent US20220151230A1, “SPECIFICALLY SUBSTITUTED 3-(2-HALOGEN-6-ALKYL-4-PROPINYLPHENYL)-3-PYRROLIN-2-ONES AND TO THE USE THEREOF AS HERBICIDES” (Bayer Aktiengesellschaft, priority 2019, published 2022):

Legend:
[1] = test system: ECHCG; test: Post-emergence herbicidal effect against ECHCG; assay type: in vivo, Echinochloa crus-galli; conditions: one-leaf stage, 80 g/ha, assessed visually after about 3 weeks vs untreated controls, 100% = plants have died
Protocol: (§1) Seeds of monocotyledonous and dicotyledonous weed and crop plants are laid out in sandy loam soil in wood-fiber pots, covered with soil and cultivated in a greenhouse under good growth conditions. 2 to 3 weeks after sowing, the test plants are treated at the one-leaf stage. The compounds of the invention, formulated in the form of wettable powders (WP) or as emulsion concentrates (EC), are then sprayed onto the green parts of the plants as aqueous suspension or emulsion at a water application rate equating to 600 to 800 l/ha with addition of 0.2% wetting agent. After the test plants have been left to stand in the greenhouse under optimal growth conditions for about 3 weeks, the action of the preparations is assessed visually in comparison to untreated controls (herbicidal action in percent (%): 100% activity=the plants have died, 0% activity=like control plants).

[2] = test system: SETVI; test: Pre-emergence herbicidal effect against SETVI; assay type: in vivo, Setaria viridis; conditions: 320 g/ha, scored visually after 3 weeks vs untreated controls, 100% = plants have died
Description: (§2) Seeds of monocotyledonous and dicotyledonous weed plants and crop plants are laid out in sandy loam soil in wood-fiber pots and covered with soil. The compounds of the invention, formulated in the form of wettable powders (WP) or as emulsion concentrates (EC), are then applied to the surface of the covering soil as aqueous suspension or emulsion at a water application rate equating to 600 to 800 L/ha with addition of 0.2% wetting agent.
(§3) After the treatment, the pots are placed in a greenhouse and kept under good growth conditions for the trial plants. The damage to the test plants is scored visually after a test period of 3 weeks by comparison with untreated controls (herbicidal activity in percent (%): 100% activity=the plants have died, 0% activity=like control plants).

[3] = test system: SETVI; test: Post-emergence herbicidal effect against SETVI; assay type: in vivo, Setaria viridis; conditions: one-leaf stage, 80 g/ha, assessed visually after about 3 weeks vs untreated controls, 100% = plants have died
Protocol: as §1

[4] = test system: DIGSA; test: Pre-emergence herbicidal effect against DIGSA; assay type: in vivo, Digitaria sanguinalis; conditions: 320 g/ha, scored visually after 3 weeks vs untreated controls, 100% = plants have died
Description: as §2, §3

[5] = test system: ALOMY; test: Pre-emergence herbicidal effect against ALOMY; assay type: in vivo, Alopecurus myosuroides; conditions: 320 g/ha, scored visually after 3 weeks vs untreated controls, 100% = plants have died
Description: as §2, §3

[6] = test system: ECHCG; test: Pre-emergence herbicidal effect against ECHCG; assay type: in vivo, Echinochloa crus-galli; conditions: 320 g/ha, scored visually after 3 weeks vs untreated controls, 100% = plants have died
Description: as §2, §3

[7] = test system: AVEFA; test: Pre-emergence herbicidal effect against AVEFA; assay type: in vivo, Avena fatua; conditions: 320 g/ha, scored visually after 3 weeks vs untreated controls, 100% = plants have died
Description: as §2, §3

[8] = test system: ALOMY; test: Post-emergence herbicidal effect against ALOMY; assay type: in vivo, Alopecurus myosuroides; conditions: one-leaf stage, 80 g/ha, assessed visually after about 3 weeks vs untreated controls, 100% = plants have died
Protocol: as §1

[9] = test system: LOLRI; test: Pre-emergence herbicidal effect against LOLRI; assay type: in vivo, Lolium rigidum; conditions: 320 g/ha, scored visually after 3 weeks vs untreated controls, 100% = plants have died
Description: as §2, §3

Row | Compound | Post-emergence action [%] against ECHCG [1] [%] | Pre-emergence action [%] against SETVI [2] [%] | Post-emergence action [%] against SETVI [3] [%] | Pre-emergence action [%] against DIGSA [4] [%] | Pre-emergence action [%] against ALOMY [5] [%] | Pre-emergence action [%] against ECHCG [6] [%] | Pre-emergence action [%] against AVEFA [7] [%] | Post-emergence action [%] against ALOMY [8] [%] | Pre-emergence action [%] against LOLRI [9] [%]
1 | CC#Cc1cc(Cl)c(C2=C(OC(=O)OC)C3(CCC(OCCOC)CC3)NC2=O)c(CC)c1 (stereo not drawn) [Example P28] | 80 | 100 | 80 | 100 | 100 | 100 | 80 |  | 
2 | CC#Cc1cc(Br)c(C2=C(OC(=O)OCC)C3(CCC(OC)CC3)NC2=O)c(CC)c1 (stereo not drawn) [Example P34] | 90 | 100 | 100 |  |  |  |  | 100 | 
3 | CC#Cc1cc(C)c(C2=C(OC(=O)C(C)C)C3(CCC(CC)CC3)NC2=O)c(Cl)c1 (stereo not drawn) [Example P1, 3-[2-Chloro-6-methyl-4-(prop-1-yn-1-yl)phenyl]-8-ethyl-2-oxo-1-azaspiro[4.5]dec-3-en-4-yl 2-methylpropanoate] |  |  | 100 |  |  |  |  |  | 
4 | CC#Cc1cc(C)c(C2=C(OC(=O)OC(C)(C)C)C3(CCCC(OCC(C)C)C3)NC2=O)c(Cl)c1 (stereo not drawn) [Example Q7] |  | 100 |  |  | 80 |  |  |  | 
5 | CC#Cc1cc(Cl)c(C2=C(OC(=O)OCC)C3(CCC(OCCOC)CC3)NC2=O)c(CC)c1 (stereo not drawn) [Example P23] |  | 100 | 80 | 100 | 100 | 100 | 80 | 80 | 100
6 | CC#Cc1cc(Br)c(C2=C(OC(=O)OCC)C3(CCCC(OCCOC)C3)NC2=O)c(CC)c1 (stereo not drawn) [Example Q1] |  | 100 | 90 |  | 90 |  |  | 80 | 90
7 | CC#Cc1cc(Cl)c(C2=C(OC(=O)C(C)C)C3(CCC(OCC)CC3)NC2=O)c(CC)c1 (stereo not drawn) [Example P31] |  | 100 | 100 | 100 | 100 | 100 | 90 | 100 | 100
8 | CC#Cc1cc(Cl)c(C2=C(OC(=O)OC(C)(C)C)C3(CCC(OCCOC)CC3)NC2=O)c(CC)c1 (stereo not drawn) [Example P29] | 90 | 80 | 90 | 90 | 80 | 90 | 80 |  | 
9 | CC#Cc1cc(Cl)c(C2=C(OC(=O)C(C)C)C3(CCC(OCCOC)CC3)NC2=O)c(CC)c1 (stereo not drawn) [Example P32] |  | 100 | 90 | 90 | 100 | 100 |  |  | 90
